Assays:
liver growth [1] = experiment: chart of prostaglandin derivatives: relative potency to increase liver growth; conditions: zebrafish, in vivo
Text: Another embodiment of the present invention provides for compositions and methods that modulate vertebrate tissue growth or regeneration via the prostaglandin signaling pathway. For example, prostaglandin E2 enhances vertebrate tissue regeneration. A chemical screen in zebrafish identified the prostaglandin signaling pathway as a potent modifier of liver growth during embryonic development. […] As many molecular pathways controlling embryonic development mediate tissue homeostasis in the adult, the effects of prostaglandin signaling during liver regeneration were examined. […] Fish were revived and allowed to heal in fish water.

liver growth [2] = experiment: liver growth, early experimental evidence; type: in vivo
[3] = tested on: cKit+Sca1+ Lineage- (KSL) bone marrow cells; experiment: murine transplantation assay with purified HSCs, CFU-S12; type: in vivo, mice
Experimental: To assess whether prostaglandin levels regulate wnt activity in HSCs, murine transplantation assays were performed utilizing purified HSCs. FACS-isolated cKit+Sca1+ Lineage—(KSL) bone marrow cells were transplanted into lethally irradiated recipients.

[4] = tested on: hematopoietic stem cells (HSCs); experiment: HSC formation in zebrafish embryos (runx1, c-myb expression), with heat-shock inducible wnt modulators; type: in vivo
Experimental: The functional consequences of the PGE2/wnt interaction in HSC formation during embryonic development were analyzed by examining the expression of the HSC markers runx1 and c-myb. Heat shock induction of a canonical wnt ligand, wnt8, at ten somites led to enhanced HSC formation at 36 hours post fertilization (hpf; 47/54). When wnt8 induction was followed by exposure to indomethacin (10 μM, 16-36 hpf) HSC formation was reduced to or below wild-type levels ( 43/46).
Inducible negative regulators of wnt activity were used in combination with dmPGE2 treatment to functionally localize the interaction between the PG and wnt pathways. Dkk1 antagonizes the wnt pathway at the level of membrane binding and the initiation of the wnt signaling cascade. Dkk induction in hs:dkk1 transgenic embryos inhibited HSC development ( 34/49). Exposure to exogenous dmPGE2 rescued the dkk1-mediated effect on HSC formation ( 28/51, 10 μM, 16-36 hpf). Axin is a central component of the β-catenin destruction complex and thus a negative regulator of the wnt signaling cascade in the cytosolic compartment. […] Similarly, a dominant-negative form of the β-catenin transcriptional co-activator TCF abolished HSC formation ( 60/62), and no rescue was affected via dmPGE2 exposure.
The wnt pathway can actively enhance HSC proliferation through signaling from the HSC niche as well as within HSCs themselves. PGE2 regulates HSC formation at the level of the vascular niche as well as within the HSCs. North et al., 2007. In order to identify transcriptional programs regulated by the wnt signaling pathway, genes involved in HSC development were analyzed by qPCR.
The functional interaction of signaling processes in the zebrafish, down stream from PG, was explored by increasing camp production using forskolin and inhibiting PKA with H89. […] Furthermore, the rescue of dkk effects by dmPGE2 was eliminated by H89.
Heat shock activation/repression of wnt signaling: Embryonic heat-shock experiments were conducted at 38° C. for a duration of 20 minutes unless otherwise noted. Genotype was determined by the presence of GFP fluorescence at three hours post heat-induction, non-fluorescence (wild-type) siblings were used as controls.
(§1) In situ hybridization: Paraformaldehyde (PFA)-fixed embryos were processed for in situ hybridization using standard zebrafish protocols such as those found on the internet at, for example, ZFIN: The Zebrafish Model Organism Database (hosted by the Univ. Oregon, Eugene, Oreg.). The following RNA probes were used to detect alterations in endodermal and liver development: GFP, LFABP, sterol carrier protein, transferrin, foxA3, insulin, trypsin, and IFABP. Changes in expression compared to wild-type controls are reported as the # altered/# scored per genotype; a minimum of three independent experiments were conducted per analysis.

adult zebrafish liver = experiment: liver regeneration and wound healing after 1/3 partial hepatectomy in adult zebrafish; type: in vivo; conditions: for wound healing at the incision site: skin wounds following partial hepatectomy
Text: Following ⅓ partial hepatectomy, the zebrafish liver regenerates within five days to seven days.
As many molecular pathways controlling embryonic development mediate tissue homeostasis in the adult, the effects of prostaglandin signaling during liver regeneration were examined. […] Fish were revived and allowed to heal in fish water.
To test the requirement of functional prostaglandin signaling during regeneration, fish were exposed to the dual-specific cox inhibitor, indomethacin, from hour 6 to hour 18 following partial hepatectomy.
Liver Resection: Folling administration of tricaine anesthetic, ⅓ partial hepaectomy of the adult zebrafish liver was performed under brightfield imaging on a dissection microscope. An incision was made using microdissection scissors posterior to the heart on the left lateral portion of the abdomen.

wnt activity = wnt activity in TOP:dGFP wnt reporter zebrafish embryos (in situ hybridization and qPCR for GFP); type: in vivo; conditions: for wnt activity in the developing brain, liver and gut: developing zebrafish, TOP:dGFP
Text: An embodiment of the present invention provides for manipulation of the genetic interaction between PGE2 and wnt/β-catenin signaling, which regulates developmental specification of stem cells and regeneration. Briefly, prostaglandin (PG) E2 is required for the formation and function of hematopoietic stem cells (HSCs) in vivo, yet its mechanism of action in these cells is not completely understood.
The following RNA probes were used to detect alterations in endodermal and liver development: GFP, LFABP, sterol carrier protein, transferrin, foxA3, insulin, trypsin, and IFABP. Changes in expression compared to wild-type controls are reported as the # altered/# scored per genotype; a minimum of three independent experiments were conducted per analysis.

[5] = tested on: stem and progenitor cell population; experiment: hematopoietic recovery following irradiation in the adult zebrafish (kidney marrow); type: in vivo; conditions: zebrafish
Experimental: It has been hypothesized that wnt activation regulates HSC self-renewal and repopulation. Wnt activation is also thought to be involved in carcinogenesis, however, making the concept of direct enhancement of wnt signaling problematic. Whether regulation of wnt activity by prostaglandin can effectively modulate HSC homeostasis in the adult, was determined by observing hematopoietic recovery following irradiation in the zebrafish. […] APCMin/+ mice have elevated β-catenin levels due to loss of APC function in the destruction complex.

[6] = tested on: endodermal and hepatic progenitor cells; experiment: endodermal progenitors (foxA3) and liver size (lfabp) in zebrafish embryos, in situ hybridization; type: in vivo
Text: To determine whether the interaction of PGE2 and wnt/β-catenin signaling is a conserved regulator of stem and progenitor cell populations in other tissues, endodermal and hepatic progenitor cells were examined during zebrafish development. […] ( 51/56), as detected by expression of liver fatty acid binding protein (lfabp). […] This finding is supported by the detection of various components of PGE2 signaling in foxA3 positive cells.
The APC mutant zebrafish to model constitutive activation of the wnt signaling pathway, was used to characterize the effects of the wnt/PG interaction in foxA3+ endodermal progenitors at 48 hpf. APC+/− embryos have enhanced foxA3 expression and an increased liver bud ( 88/93) as well as increased liver size ( 68/75) compared to wild-type siblings. […] Both cyclinD1 and cmyc were co-regulated by wnt and prostaglandin during development which may indicate that PGE2 exerts its effects on stem cells through enhanced cell cycling and proliferation.
as §1

Molecule: CCCCC[C@H](O)/C=C/[C@H]1[C@H](O)CC(=O)[C@@H]1C/C=C/CCCC(=O)O (relative stereo) [5-trans PGE2]
- toxicity noted in liver growth chart (liver growth [1]): toxic

Molecule: C[C@]12CC[C@@H]3c4ccc(O)cc4CC[C@H]3[C@@H]1CC[C@@H]2O [3-estradiol]
- effect on liver growth (liver growth [2]): inhibited

Molecule: CC1=C(/C=C/C(C)=C/C=C/C(C)=C/C(=O)O)C(C)(C)CCC1 [All-trans retinoic acid]
- effect on liver growth (liver growth [2]): enhanced

Molecule: O=C1Nc2cc(Br)ccc2/C1=C1/Nc2ccccc2/C1=N\O [BIO]
- CFU-S12 increase ([3]; BIO 0.05 mg/kg, p=0.03): 2 fold
- early spleen colony formation following bone marrow transplantation ([3]; FIG. 11 legend): enhances early spleen colony formation

Molecule: CC1=C(/C=C/C(C)=C/C=C/C(C)=C/C=C/C=C(C)/C=C/C=C(C)/C=C/C2=C(C)CCCC2(C)C)C(C)(C)CCC1 [Beta-Carotene]
- effect on liver growth (liver growth [2]): inhibited

Molecule: O=S(=O)(NCCNC/C=C/c1ccc(Br)cc1)c1cccc2cnccc12 [H89]
- effect on increased HSC formation induced by dmPGE2 ([4]; PKA inhibition): reduced the increased HSC formation
- effect on the rescue of dkk effects by dmPGE2 ([4]; PKA inhibition): eliminated

Molecule: CCCCC[C@H](O)/C=C/[C@H]1[C@H](O)CC(=O)[C@@H]1C/C=C\CCCC(=O)O [PGE2, Prostaglandin E2]
- wound healing at the incision site (adult zebrafish liver): heal faster and to a greater extent
- wnt activity in the developing brain, liver and gut (wnt activity): increased wnt activity

Molecule: CC1=C(/C=C/C(C)=C/C=C/C(C)=C/CO)C(C)(C)CCC1 [Retinol]
- effect on liver growth (liver growth [2]): enhanced

Molecule: CCCCC(C)(C)[C@H](O)/C=C/[C@H]1[C@H](O)CC(=O)[C@@H]1C/C=C\CCCC(=O)O [dmPGE2, dimethyl-prostaglandin E2]
- rescue of axin-mediated inhibition of HSC formation ([4]; axin induced at ten somites): could not be overcome
- rescue of dominant-negative TCF-mediated loss of HSC formation ([4]; dnTCF induction): no rescue
- rescue of dkk1-mediated effect on HSC formation (# altered/# scored) ([4]; hs:dkk1 embryos, 10 μM, 16-36 hpf): 28/51
- effects of wnt8/dkk1 induction on runx1, cmyb, flk1, ephB2 expression (qPCR) ([4]; indomethacin added to wnt8, dmPGE2 added to dkk1): could be modified
- kidney marrow repopulation following injury [5]: enhance kidney marrow repopulation
- enhanced endodermal progenitors (# altered/# scored) ([6]; APC+/− embryos): 47/54
- enhanced liver size (# altered/# scored) ([6]; APC+/− embryos): 75/81
- rescue of liver growth inhibited by morpholino knock-down of cox1 or cox2 ([6]; exogenous dmPGE2): rescued fully
- expanded foxA3 population with increased liver anlage (# altered/# scored) ([6]; wild-type embryos): 75/83
- increased liver size (# altered/# scored) ([6]; wild-type embryos): 88/92
- liver size / liver development compared to controls ([6]; zebrafish embryos, by 72 hours post-fertilization): enhanced liver development
- liver vascularity (adult zebrafish liver; compared to untreated fish): increases in liver vascularity
- liver regrowth compared to controls (adult zebrafish liver; exposure following resection (indomethacin hour 6 to 18; day 1 and day 3)): enhanced liver regrowth
- complete regeneration of the liver (adult zebrafish liver; indomethacin: by day 5 post-resection): faster complete regeneration
- wound healing at the incision site (adult zebrafish liver): more rapid wound healing
- wnt-active cells in the aorta-gonad mesonephros (AGM) (wnt activity; 10 μM, vs. 3±1.8 cells): 12±3.4 cells
- wnt activity in the developing brain, liver and gut (wnt activity): enhance wnt signaling
- induction of wnt activity, qPCR for GFP (wnt activity; whole embryo extracts): 2 fold

Molecule: BMS189453
- effect on liver growth (liver growth [2]): inhibited

Molecule: Vitamin D
- effect on liver growth (liver growth [2]): enhanced

Reference: patent US10736906B2, “Method to enhance tissue regeneration” (CHILDREN'S MEDICAL CENTER CORPORATION, priority 2006, dated 2020)
